# In patent US20140093489A1, “NUTRITIONAL SUPPLEMENTS FOR EYE HEALTH AND RELATED METHODS” (priority 2012, published 2014):
# Read-outs that look alike come from different tables or passages of the source.
# Tests used:
# [1] = Coenzyme Q supplementation effect on serum vitamin C; format: in vivo
# Description: FIG. 1. Coenzyme Q supplementation effect on serum vitamin C (μg/ml). Subjects (N=12) were given coenzyme Q for 2 weeks with blood taken pre and post intervention. Values are means±SD.
# Coenzyme Q has antioxidant properties. This molecule is found in the diet and is made by the body. Body production declines with age. Absorption of orally ingested coenzyme Q can be low, though certain forms work better than others.
# [2] = system: plasma extracellular superoxide dismutase; conditions: rats fed the copper at adequate level for 6 weeks, unpaired t-test P<0.01
# Description: FIG. 4. Comparison of adequate copper intake as sulfate or glycinate for effects on plasma extracellular superoxide dismutase activities in rats. Rats were fed the copper for 6 weeks. […] Values are means±SD in activity units/ml.
# Copper is another important cofactor for metalloenzymes, and is a second necessary cofactor for superoxide dismutase.
# [3] = one dose of zinc, blood samples at 0-4 hours, n=12, ANOVA+Tukey p<0.05
# Protocol: FIG. 2. Relative zinc absorption from three different forms of zinc. Subjects (n=12) were given one dose of zinc with blood samples taken at 0, 1, 2, 3, and 4 hours. Erythrocyte (red blood cell) zinc was analyzed for each time point with area under the curve used as a measure of relative absorption. The order of the different forms of zinc was randomly determined for each subject. A washout of at least 2 weeks occurred between testings of the different forms of zinc. Values are means±SD.
# Zinc is important in maintaining the health of an eye's retina and is an essential part of more than 100 enzymes involved in digestion, metabolism, reproduction, and wound healing. […] (FIG. 3).
# [4] = 60 mg/day zinc for 6 weeks
# Protocol: Plasma zinc (μg/ml) response to zinc supplementation as gluconate (GLUC) or glycinate chelate (CHE). Young adult females were given 60 mg/day zinc for 6 weeks.
compound,measurement,setting,value
COC1=C(OC)C(=O)C(C/C=C(\C)CC/C=C(\C)CC/C=C(\C)CC/C=C(\C)CC/C=C(\C)CC/C=C(\C)CC/C=C(\C)CC/C=C(\C)CC/C=C(\C)CCC=C(C)C)=C(C)C1=O [Coenzyme Q],"serum vitamin C (μg/ml), post-values vs pre-values","[1]; coenzyme Q for 2 weeks, N=12, paired t-test P<0.001",significantly different from pre-values
same,plasma concentrations of active vitamin C,"[1]; well-absorbed form of coenzyme Q, FIG. 1",greatly increase plasma concentrations of active vitamin C
NCC(=O)[O-].NCC(=O)[O-].[Cu+2] [copper glycinate],plasma extracellular superoxide dismutase activities (activity units/ml),[2],higher activities of a plasma copper enzyme than copper sulfate
same,plasma extracellular superoxide dismutase activities (activity units/ml),[2]; listed as Glycinate,significantly different from sulfate values
NCC(=O)[O-].NCC(=O)[O-].[Zn+2] [zinc glycinate],relative zinc absorption (erythrocyte zinc area under the curve),[3],better absorbed than zinc oxide
same,relative zinc absorption (erythrocyte zinc area under the curve),[3]; listed as Zinc chelate,differed from the other two groups
same,"plasma zinc (μg/ml), post treatment vs pre-treatment",[4],significantly different from pre-treatment
zinc gluconate [reference compound],"plasma zinc (μg/ml), post treatment vs pre-treatment",[4],statistically significant decrease
